According to ChEMBL document CHEMBL1201862, “PubChem BioAssay data set” (2004):
Active and inactive are the calls of the source.

What was measured:
[1] = Shn3 3'UTR reporter inhibitors, dose response, cell-based, Clone20 osteoblasts, firefly luciferase, cherry-picked (AID 624132); type: functional;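 also: firefly luciferase luminescence from reporter carrying the Shn3 3'UTR in osteoblasts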
[2] = control 3'UTR Renilla luciferase suppression, dose response, counter-screen for Shn3 inhibitor project, cell-based, Clone20-Shn3RL, cherry-picked (AID 624133); type: functional
[3] = reduction of Shn3 3'UTR firefly luciferase signal, dose response, Schnurri-3 inhibitor project, cell-based, Clone20 osteoblasts, cherry-pick, set 2 (AID 720490); type: functional;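 also: actives lower the luminescence signal as inhibitors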
[4] = inhibitors of control Renilla luciferase reporter, dose response, counter-screen for Shn3 3'UTR targeting project, Clone20-Shn3RL cells, dual-Glo, cherry-pick, set 2 (AID 720724); type: functional, cell-based; details: Dual-Go Shn3RL
[5] = target: Paired box protein Pax-8 (Homo sapiens, UniProt Q06710); test: inhibitors of PAX8-driven TPO luciferase reporter, dose response, RMG-I cells, cherry-pick (AID 687027); type: functional, cell-based;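 also: luciferase reporter driven by Pax8 target thyroperoxidase promoter measured by SteadyGlo luminescence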
Paired box protein Pax-8, sequence (Q06710 whole entry): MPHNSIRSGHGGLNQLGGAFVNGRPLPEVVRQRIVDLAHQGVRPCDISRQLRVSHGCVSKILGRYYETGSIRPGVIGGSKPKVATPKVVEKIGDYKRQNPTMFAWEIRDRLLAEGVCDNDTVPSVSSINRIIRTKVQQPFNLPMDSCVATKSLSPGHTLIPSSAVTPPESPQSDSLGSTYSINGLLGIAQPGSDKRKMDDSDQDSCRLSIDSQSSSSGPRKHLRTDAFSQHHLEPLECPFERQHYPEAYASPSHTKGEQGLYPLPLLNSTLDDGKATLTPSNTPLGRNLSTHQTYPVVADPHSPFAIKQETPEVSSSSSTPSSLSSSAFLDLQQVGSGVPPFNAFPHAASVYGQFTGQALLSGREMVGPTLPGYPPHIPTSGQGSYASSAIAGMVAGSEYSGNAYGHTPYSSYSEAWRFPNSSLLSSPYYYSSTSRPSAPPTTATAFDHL

[6] = PAX2 cell-based inhibition, dose response, selectivity assay for PAX8 inhibitor project, plate reader, dry powder samples (AID 743048); type: functional;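 also: HEK293 cells carrying a WT1 promoter luciferase reporter driven by expressed Pax2; potency is for inhibition of Pax2 driven reporter signal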
[7] = inhibitors of CMV-promoter luciferase reporter, dose response, counter-screen for Pax8 inhibitor project, cell-based, HEK293, luminescence, dry powder (AID 743020); type: functional
[8] = NIH:OVCAR-3 ovarian cancer cell cytotoxicity, dose response, PAX8 inhibitor project, plate reader, dry powder samples (AID 743044); type: functional, cell-based
[9] = PAX5 activity inhibitors, dose response, selectivity assay for PAX8 inhibitor project, cell-based, plate reader, dry powder samples (AID 743047); type: functional;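 also: HEK293 cells carrying a Pax5 driven CD19 promoter luciferase reporter; potency of inhibitors that lower reporter luminescence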
[10] = cytotoxicity in OVCAR4 cells, dose response, cytotoxicity control for PAX8 inhibitor project, cell-based, plate reader, dry powder, SA11 (AID 743150); type: functional; details: OVCAR-4
[11] = cytotoxicity in COV434 cells, dose response, cytotoxicity control for PAX8 inhibitor project, cell-based, plate reader, dry powder, SA7 (AID 743145); type: functional
[12] = non-specific cell cytotoxicity, dose response, cytotoxicity control for PAX8 inhibitor project, plate reader, dry powder samples (AID 743021); type: functional, cell-based
[13] = cytotoxicity in OVCAR8 ovarian cancer cells, dose response, PAX8 project, cell-based, plate reader, dry powder samples (AID 743197); type: functional; details: OVCAR-8
[14] = cytotoxicity dependent on PAX8, dose response, cell-based, plate reader, dry powder (AID 743049); type: functional
[15] = target: Disintegrin and metalloproteinase domain-containing protein 17 (Homo sapiens, UniProt P78536); test: exosite inhibitors of ADAM17, dose response, biochemical (AID 743260)
Disintegrin and metalloproteinase domain-containing protein 17, sequence (P78536 whole entry, the tested form may be a part): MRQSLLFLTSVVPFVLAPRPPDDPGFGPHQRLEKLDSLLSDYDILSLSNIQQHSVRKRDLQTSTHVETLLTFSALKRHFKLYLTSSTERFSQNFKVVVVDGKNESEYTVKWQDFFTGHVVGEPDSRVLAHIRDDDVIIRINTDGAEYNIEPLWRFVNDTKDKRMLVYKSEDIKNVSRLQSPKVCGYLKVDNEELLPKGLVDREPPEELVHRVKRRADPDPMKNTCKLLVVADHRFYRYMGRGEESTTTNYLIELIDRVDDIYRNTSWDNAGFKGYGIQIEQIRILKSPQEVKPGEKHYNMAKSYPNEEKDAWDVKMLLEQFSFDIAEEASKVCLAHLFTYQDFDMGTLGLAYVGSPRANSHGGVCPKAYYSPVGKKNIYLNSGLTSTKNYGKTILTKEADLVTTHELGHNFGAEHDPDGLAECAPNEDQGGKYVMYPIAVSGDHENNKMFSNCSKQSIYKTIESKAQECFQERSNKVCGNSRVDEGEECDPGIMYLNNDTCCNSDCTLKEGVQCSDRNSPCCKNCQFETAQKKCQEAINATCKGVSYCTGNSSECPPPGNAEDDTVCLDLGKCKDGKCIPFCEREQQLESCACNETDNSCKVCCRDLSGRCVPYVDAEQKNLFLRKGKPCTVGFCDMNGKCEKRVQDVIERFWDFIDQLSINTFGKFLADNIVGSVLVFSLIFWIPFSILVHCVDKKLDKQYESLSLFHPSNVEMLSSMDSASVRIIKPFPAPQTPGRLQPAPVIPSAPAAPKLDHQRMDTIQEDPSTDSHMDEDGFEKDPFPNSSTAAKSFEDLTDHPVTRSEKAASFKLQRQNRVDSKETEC

[16] = ADAM10 protease inhibitors, dose response, selectivity assay for ADAM17 exosite inhibitor project, biochemical, FRET peptide substrate, recombinant human ADAM10 (AID 743259);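 also: ADAM10 enzyme cleaving a FRET peptide substrate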
[17] = test system: Vero; test: Vero cell toxicity, dose response, cytotoxicity control, plate reader, cherry-pick samples (AID 687020); type: functional, cell-based; details: Chlorocebus sabaeus
[18] = test system: HEK293; test: HEK293T cell cytotoxicity, dose response, cytotoxicity control, ATP luminescence, cherry-pick samples (AID 687005); type: functional, cell-based; details: Homo sapiens;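 also: cells exposed to compound for 48 hours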
[19] = HEK293 Cytotoxicity Assay Measured in Cell-Based System Using Plate Reader - 7071-01_Inhibitor_Dose_CherryPick_Activity_Set2.; type: functional
[20] = target: Protein disulfide-isomerase (Homo sapiens, UniProt P07237); test: PDI inhibitors, insulin turbidity readout, confirmation, biochemical, dry powder samples, set 2 (AID 652146)
Protein disulfide-isomerase, sequence (P07237 whole entry): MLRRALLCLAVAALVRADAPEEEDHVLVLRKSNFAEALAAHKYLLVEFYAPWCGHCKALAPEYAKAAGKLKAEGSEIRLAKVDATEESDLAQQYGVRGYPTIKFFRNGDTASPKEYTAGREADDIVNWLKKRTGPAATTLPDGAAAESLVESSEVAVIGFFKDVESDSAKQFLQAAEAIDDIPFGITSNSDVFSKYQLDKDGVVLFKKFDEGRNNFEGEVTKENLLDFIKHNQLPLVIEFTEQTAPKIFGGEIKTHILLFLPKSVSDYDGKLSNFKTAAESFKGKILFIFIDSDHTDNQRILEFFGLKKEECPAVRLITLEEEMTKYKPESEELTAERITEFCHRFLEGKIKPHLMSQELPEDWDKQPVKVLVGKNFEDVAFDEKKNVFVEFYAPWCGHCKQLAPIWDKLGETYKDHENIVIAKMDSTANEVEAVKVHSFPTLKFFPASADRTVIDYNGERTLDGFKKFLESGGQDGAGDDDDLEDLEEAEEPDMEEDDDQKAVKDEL

[21] = HEK293T cytotoxicity, dose response, cytotoxicity control for miR-122 modulator project, cell-based, inhibitor set, cherry-pick, set 2 (AID 720697); type: functional
[22] = NIH-3T3 fibroblast cytotoxicity, dose response, cytotoxicity control, cell-based, fluorescence, Alamar Blue, secondary assay (AID 2327); type: functional;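 also: NIH-3T3 mouse fibroblasts cultured with fluconazole at 8 µg/mL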
[23] = C. albicans growth with fluconazole, confirmation, fluorescence, retest (AID 2467); type: functional, cell-based
[24] = HeLa cell cytotoxicity, dose response, cytotoxicity control for MgcRacGAP inhibitor project (AID 624300); type: functional
[25] = target: T1, Rac GTPase-activating protein 1 (Homo sapiens, UniProt Q9H0H5); test: MgcRacGAP GTPase-activating activity inhibitors, confirmation, biochemical, ADP Hunter fluorescence, primary and confirmatory (AID 624330); type: functional
T1 sequence (Q9H0H5 whole entry): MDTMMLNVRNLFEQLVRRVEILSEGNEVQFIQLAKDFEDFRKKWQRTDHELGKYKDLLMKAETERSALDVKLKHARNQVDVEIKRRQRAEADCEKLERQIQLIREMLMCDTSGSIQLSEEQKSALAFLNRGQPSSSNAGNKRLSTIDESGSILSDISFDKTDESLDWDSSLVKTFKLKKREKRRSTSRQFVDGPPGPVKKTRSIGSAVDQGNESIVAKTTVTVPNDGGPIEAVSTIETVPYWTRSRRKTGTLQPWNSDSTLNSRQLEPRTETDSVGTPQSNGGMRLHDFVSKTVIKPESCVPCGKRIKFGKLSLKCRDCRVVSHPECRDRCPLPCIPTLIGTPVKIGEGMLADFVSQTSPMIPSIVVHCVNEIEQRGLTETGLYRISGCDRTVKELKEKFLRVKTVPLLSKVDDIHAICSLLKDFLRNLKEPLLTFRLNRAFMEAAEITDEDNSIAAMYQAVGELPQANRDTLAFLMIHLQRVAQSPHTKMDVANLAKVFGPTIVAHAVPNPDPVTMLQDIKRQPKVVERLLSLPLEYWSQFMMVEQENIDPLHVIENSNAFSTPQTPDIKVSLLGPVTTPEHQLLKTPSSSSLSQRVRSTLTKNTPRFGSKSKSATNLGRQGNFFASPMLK

[26] = A cytotoxicity screen of small molecule inhibitors of the PhoP region in Salmonella typhi identified in the primary screen. [Related pubchem assays: 1850, 1864, 1985 ]; type: functional
[27] = target: Prothrombin (Homo sapiens, UniProt P00734); test: Thrombin 1536 HTS Dose Response Confirmation. [Related pubchem assays: 1046 (Thrombin 1536 HTS; hits were confirmed in this assay)]; type: functional
[28] = target: T2, Polyadenylate-binding protein 1 (Homo sapiens, UniProt P11940); test: PABP1 MLLE–PAM2 interaction inhibitors, dose response, miRNA deadenylation inhibitor project, biochemical, fluorescence polarization, Cy5-PAM2 peptide, secondary (AID 602260); type: functional; details: read-out: IC50_Mean
T2 sequence (P11940 whole entry): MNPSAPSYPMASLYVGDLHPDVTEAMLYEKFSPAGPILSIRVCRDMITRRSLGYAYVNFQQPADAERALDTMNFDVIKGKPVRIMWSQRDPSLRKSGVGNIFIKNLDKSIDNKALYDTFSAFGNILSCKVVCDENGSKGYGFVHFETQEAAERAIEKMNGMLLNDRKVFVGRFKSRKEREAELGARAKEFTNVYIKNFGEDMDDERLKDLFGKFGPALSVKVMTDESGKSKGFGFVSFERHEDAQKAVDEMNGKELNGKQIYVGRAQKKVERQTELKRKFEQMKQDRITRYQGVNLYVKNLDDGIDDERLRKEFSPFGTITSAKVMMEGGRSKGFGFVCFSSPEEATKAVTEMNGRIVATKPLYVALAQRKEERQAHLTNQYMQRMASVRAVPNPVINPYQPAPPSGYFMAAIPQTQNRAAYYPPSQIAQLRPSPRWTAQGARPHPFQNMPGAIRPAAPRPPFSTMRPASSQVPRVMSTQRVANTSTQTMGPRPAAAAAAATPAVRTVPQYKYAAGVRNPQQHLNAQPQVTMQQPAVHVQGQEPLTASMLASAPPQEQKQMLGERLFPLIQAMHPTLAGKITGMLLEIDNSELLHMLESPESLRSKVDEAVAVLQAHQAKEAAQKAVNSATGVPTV

[29] = target: T2, Polyadenylate-binding protein 1; test: PABP1 MLLE–PAM2 binding inhibitor potency, dose response, biochemical, fluorescence polarization, FITC-PAM2 peptide (AID 602259); type: functional; details: read-out: IC50_Mean
[30] = target: Fructose-bisphosphate aldolase (Mycobacterium tuberculosis, UniProt P9WQA3); test: Fluorescence-based biochemical high throughput dose response assay for inhibitors of the fructose-bisphosphate aldolase (FBA) of M. tuberculosis.; type: functional
Fructose-bisphosphate aldolase, sequence (P9WQA3 whole entry): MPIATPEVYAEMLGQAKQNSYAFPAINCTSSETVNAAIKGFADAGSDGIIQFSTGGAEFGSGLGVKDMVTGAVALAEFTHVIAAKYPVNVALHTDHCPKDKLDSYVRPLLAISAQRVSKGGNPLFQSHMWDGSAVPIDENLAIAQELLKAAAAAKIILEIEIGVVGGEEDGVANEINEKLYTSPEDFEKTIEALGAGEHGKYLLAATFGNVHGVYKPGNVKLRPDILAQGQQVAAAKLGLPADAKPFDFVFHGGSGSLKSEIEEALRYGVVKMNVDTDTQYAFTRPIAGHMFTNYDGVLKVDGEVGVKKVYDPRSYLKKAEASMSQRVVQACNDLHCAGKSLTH

[31] = target: Long-chain-fatty-acid--AMP ligase FadD28 (Mycobacterium tuberculosis, UniProt P9WQ59); test: Fluorescence polarization aasay to screen for inhibitors that compete for the binding of FadD28 to a bisubstrate Measured in Biochemical System Using Plate Reader - 2147-01_Inhibitor_Dose_CherryPick_Activity.; type: functional, Mycobacterium tuberculosis H37Rv
Long-chain-fatty-acid--AMP ligase FadD28, sequence (P9WQ59 whole entry): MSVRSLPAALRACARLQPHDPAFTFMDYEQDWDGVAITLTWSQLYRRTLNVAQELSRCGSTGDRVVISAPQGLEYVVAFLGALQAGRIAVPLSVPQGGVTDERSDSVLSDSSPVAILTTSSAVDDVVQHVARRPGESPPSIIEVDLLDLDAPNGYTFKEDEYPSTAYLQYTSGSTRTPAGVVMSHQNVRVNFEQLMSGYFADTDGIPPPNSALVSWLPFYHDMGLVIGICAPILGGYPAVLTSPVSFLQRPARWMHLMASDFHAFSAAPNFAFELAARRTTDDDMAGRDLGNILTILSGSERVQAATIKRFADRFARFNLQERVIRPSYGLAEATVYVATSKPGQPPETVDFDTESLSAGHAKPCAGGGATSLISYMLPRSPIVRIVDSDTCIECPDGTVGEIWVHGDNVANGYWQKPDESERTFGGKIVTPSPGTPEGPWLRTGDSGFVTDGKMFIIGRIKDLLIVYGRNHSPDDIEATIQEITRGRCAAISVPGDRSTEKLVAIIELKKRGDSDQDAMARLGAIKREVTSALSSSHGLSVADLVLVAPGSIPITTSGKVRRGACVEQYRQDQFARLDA

With CCC(C)c1ccc(S(=O)(=O)N2CCN(C(=O)c3ccc(Cl)c(S(=O)(=O)N4CCOCC4)c3)CC2)cc1 (stereo unspecified) as the compound, how does the AC50 [1] read?
Its AC50 is 5.32 µM (active).

And the AC50 [2]?
Its AC50 is > 70 µM (inactive).

And the AC50 [3]?
Its AC50 is 6.16 µM (active).

And the AC50 [4]?
Its AC50 is 61.3 µM (active).

Which results are given for Cc1ccc(S(=O)(=O)Nc2ccc3c(c2)C(=O)N([C@H](C)CO)C[C@@H](C)[C@H](CN(C)Cc2ccc(C(F)(F)F)cc2)OCCCC[C@H](C)O3)cc1?
AC50 [5]: 3.93 µM (active); AC50 [6]: 22 µM (active); AC50 [7]: 29.4 µM (active); AC50 [8]: 27 µM (active); AC50 [9]: 22.1 µM (active); AC50 [10]: 44.2 µM (active); AC50 [11]: 35.5 µM (active); AC50 [12]: 31 µM (active); AC50 [13]: 14.9 µM (active); AC50 [14]: 39.7 µM (active)

What does the source list for Cc1cc(C)n(CCc2nc(-c3ccc(C(C)(C)C)cc3)cs2)n1?
IC50 [15]: > 69.5 µM (inactive); IC50 [16]: 36.5 µM (inactive)

Which AC50 [17] does the source give for O=C(NCCN1CCCC1)[C@H]1N[C@H]2c3ccc(-c4ccccc4)c(=O)n3C[C@H]2[C@@H]1CO here?
Its AC50 is 23.1 µM (active).

Which AC50 [18] does the source give for Cc1cccc(C)c1NC(=O)C1CCCN1C(=O)OC(C)(C)C (stereo unspecified) here?
The AC50 was 50.8 µM (active).

What about the AC50 [19] of the same compound?
Its AC50 is 50.8 µM (active).

For C=CCOc1ccc(CN2CCC(CCOc3ccccc3)(C(=O)N(C)CC)CC2)cc1Cl, which AC50 [20] is on record?
The AC50 was > 30 µM (inactive).

For C[C@H](CO)N1C[C@H](C)[C@H](CN(C)S(=O)(=O)c2ccc(F)cc2)Oc2ccc(NS(C)(=O)=O)cc2C1=O, which AC50 [21] is on record?
Its AC50 is 1.19 µM (active).

With COc1cc(/C=C(\C#N)c2nc3ccccc3[nH]2)ccc1O as the compound, how does the EC50 [22] read?
The EC50 was 49.9 µM (active).

And the EC50 [23]?
Its EC50 is 1.41 µM (active).

What about the CC50 [24] of the same compound?
The CC50 was 99.9 µM (active).

What about the IC50 [25] of the same compound?
Its IC50 is 15.9 µM (active).

Which results are given for O=C(CSc1nc2ccccc2o1)c1cc2ccccc2oc1=O?
EC50 [26]: > 50 µM (active); IC50 [27]: > 50 µM (inconclusive); IC50 [28]: > 66 µM (inactive); IC50 [29]: > 66 µM (inactive); IC50 [30]: > 10 µM (inactive)

For CCc1cccc2c(C(=O)CSc3nncn3-c3ccc(OC)cc3)c[nH]c12, which AC50 [31] is on record?
The AC50 was > 100 µM (inactive).
